Experimental data: the OligoGym collection
Values joined by “and” are separate entries in the source; they are usually repeats but may differ in a detail not shown here. Equal entries are not always repeated. After the bases stand the sugars from the 5' end (letter, count) and the backbone: PS all phosphorothioate, else s phosphorothioate and o phosphodiester by linkage. Methylation of C is not given here. e = 2'-O-(2-methoxyethyl) (MOE); k = constrained ethyl (cEt); d = 2'-deoxy (DNA)

Target: IRF4
Conditions: ASO

| Sequence | target mRNA inhibition (SK-MEL-28, 4 µM) [%] | target mRNA inhibition (MM.1R, 1 µM) | other results |
| --- | --- | --- | --- |
| CTATAGTGTTCCAGGA (sugars k3 d10 k3, PS) | 66 |  |  |
| ACCTCAGTTTGTGAAG (sugars k3 d9 k3 e1, PS) |  | 10% |  |
| ATTTTAAGGCCCTGTC (sugars k3 d10 k3, PS) | 34 |  |  |
| GGACATTGGTACGGGA (sugars k3 d10 k3, PS) | 50 |  |  |
| AGCAGTGATGTCAGGT (sugars kdddddddddkekeke, PS) |  | 26% and 36% |  |
| GTTGTAAATGAGTCGG (sugars k2 d9 e3 k2, PS) |  | 82% | target mRNA inhibition (H929, 0.00067 µM): 6%; target mRNA inhibition (H929, 0.002 µM): 21%; target mRNA inhibition (H929, 0.00667 µM): 45%; target mRNA inhibition (H929, 0.02 µM): 57%; target mRNA inhibition (H929, 0.04 µM): 13%; target mRNA inhibition (KMS11, 0.2 µM): 50% and 44%; target mRNA inhibition (MM.1R, 0.074 µM): 26%; target mRNA inhibition (MM.1R, 0.222 µM): 53%; target mRNA inhibition (MM.1R, 0.666 µM): 76%; target mRNA inhibition (MM.1R, 2 µM): 93% |
| ACGCAATGGCAAAAGA (sugars k3 d10 k3, PS) | 11 |  |  |
| TTGCTCTTGTTCAAAG (sugars k3 d10 k3, PS) | 29 |  |  |
| ATTATATACTGGTTGG (sugars kdddddddddkekeke, PS) |  | 27% |  |
| CAGAATGTTTCGACAT (sugars k3 d10 k3, PS) |  | 14% |  |
| GCCTGGGAGTCCCCGG (sugars k3 d10 k3, PS) | 18 |  |  |
| TGTAGTATGAGAAACG (sugars k2 d9 e3 k2, PS) |  | 7% |  |
| GCTCAGCATGCAAGCC (sugars k3 d10 k3, PS) | 0 |  |  |
| GTAGAGGAGGAGGACT (sugars k3 d10 k3, PS) | 16 |  |  |
| CAGCACTCAGATTCTA (sugars k3 d10 k3, PS) | 12 |  |  |
| ACGGACGAACGCGCAA (sugars k3 d10 k3, PS) |  | -7% |  |
| TCACATGATAAGGCAC (sugars k3 d10 k3, PS) |  | 19% |  |
| ATTACTAGATTGTAGG (sugars k3 d10 k3, PS) | 50 |  |  |
| CCTGGCGGAGCATCAA (sugars k3 d10 k3, PS) | 42 |  |  |
| GTTGGCTGGTCTTTGT (sugars kkdddddddddekeke, PS) |  | 23% |  |
| CCACGCGCGGAGGACC (sugars k3 d10 k3, PS) | 19 |  |  |
| AGTTGTAAATGAGTCG (sugars kkddddddddddkeke, PS) |  | 59% | target mRNA inhibition (H929, 0.04 µM): 53% and 73%; target mRNA inhibition (KMS11, 0.2 µM): 83% and 91%; target mRNA inhibition (MM.1R, 0.074 µM): 28%; target mRNA inhibition (MM.1R, 0.222 µM): 44%; target mRNA inhibition (MM.1R, 0.666 µM): 65%; target mRNA inhibition (MM.1R, 2 µM): 81% |
| TGAGACTACACCTACA (sugars k3 d10 k3, PS) | 19 |  |  |

| Sequence | target mRNA inhibition (SK-MEL-28, 4 µM) [%] | target mRNA inhibition (MM.1R, 1 µM) | other results |
| --- | --- | --- | --- |
| TGTTACCGATGCTTCA (sugars k2 d9 e3 k2, PS) |  | 31% and 39% |  |
| TACTGCTTGAGGTTTT (sugars k2 d9 e3 k2, PS) |  | 10% |  |
| CATAAAAGGTTCCTGT (sugars k3 d10 k3, PS) | 9 |  |  |
| CAGCATAGCATTATCT (sugars k3 d10 k3, PS) | -51 |  |  |
| TGTAAGTGATAGGTAT (sugars k3 d10 k3, PS) | 53 |  |  |
| TCTATAGTGTTCCAGG (sugars kdddddddddkekeke, PS) |  | 12% |  |
| GCTATCAGGATCTCAA (sugars k3 d10 k3, PS) | 38 |  |  |
| GCTAAACCCAAAATAC (sugars k3 d10 k3, PS) | 4 |  |  |
| GGAACGAAGAGCAGGG (sugars k3 d10 k3, PS) |  | 12% |  |
| CCAATTTATGCCATGG (sugars k3 d10 k3, PS) | 12 |  |  |
| GTGATGTCAGGTTTTC (sugars e1 k2 d9 k2 e2, PS) |  | 48% |  |
| TCAGAAATCACGAGGT (sugars k3 d10 k3, PS) |  |  | target mRNA inhibition (MM.1R, 0.0625 µM): -11%; target mRNA inhibition (MM.1R, 0.25 µM): -5%; target mRNA inhibition (MM.1R, 4 µM): 37% |
| CAGAAGGGCAACAGTT (sugars k3 d10 k3, PS) | 38 |  |  |
| CGGCTCCTCCTCCTTT (sugars k3 d10 k3, PS) | 11 |  |  |
| AGCCTTCACGCACCAT (sugars k3 d10 k3, PS) | 30 |  |  |
| GCATTATCTACCTCAG (sugars k3 d10 k3, PS) | 69 |  |  |
| CGCATAGAGCCCGTCG (sugars k3 d10 k3, PS) | 53 |  |  |
| GTATTTATAACCGGTA (sugars k3 d10 k3, PS) | 67 | 34% and 36% and 37% | target mRNA inhibition (MM.1R, 0.0625 µM): -7% and 4% and -9%; target mRNA inhibition (MM.1R, 0.074 µM): -19%; target mRNA inhibition (MM.1R, 0.222 µM): 4%; target mRNA inhibition (MM.1R, 0.25 µM): 8% and 9% and 21%; target mRNA inhibition (MM.1R, 0.666 µM): 7%; target mRNA inhibition (MM.1R, 2 µM): 33%; target mRNA inhibition (MM.1R, 4 µM): 77% and 74% and 75% |
| TATATGACGACTTAAG (sugars k3 d10 k3, PS) | 30 |  |  |
| TACGAGCACATGTCAA (sugars k3 d10 k3, PS) | 36 |  |  |
| GTATGTAGCAATGTGA (sugars k3 d10 k3, PS) | 21 |  |  |
| AGCTGAGGGCAGCGGT (sugars k3 d10 k3, PS) | -7 |  |  |
| AGCTTGATAAAGGCTG (sugars kdddddddddkekeke, PS) |  | 2% |  |

| Sequence | target mRNA inhibition (SK-MEL-28, 4 µM) [%] | target mRNA inhibition (MM.1R, 1 µM) | other results |
| --- | --- | --- | --- |
| GCATAGAGTCACCTGG (sugars k3 d10 k3, PS) | 39 |  |  |
| CGTCGCAGGAGCGCGG (sugars k3 d10 k3, PS) |  | 1% |  |
| GACTACACCTACACAG (sugars k3 d10 k3, PS) | 32 |  |  |
| CGGACGAACGCGCAAA (sugars k3 d10 k3, PS) | 39 |  |  |
| CCCTTAGGATAATATA (sugars k3 d10 k3, PS) | 49 |  |  |
| CAGTGGTGGCCGCGGG (sugars k3 d10 k3, PS) | 27 |  |  |
| AGCTTGATAAAGGCTG (sugars kkdddddddddkdkdk, PS) |  | -3% |  |
| CAAGTGTCTAAAGTCC (sugars k2 d9 e3 k2, PS) |  | 22% and 31% |  |
| GCAAAGCAAGTGTCTA (sugars k3 d10 k3, PS) | 43 |  |  |
| CTCTTGTGAGGCAAAG (sugars k3 d10 k3, PS) | 48 |  |  |
| ACTCAGCAAGTGTCTT (sugars k3 d10 k3, PS) | 47 |  |  |
| CCTCAGTTTGTGAAGC (sugars k2 d9 e3 k2, PS) |  | 33% |  |
| GTCACGCAATGGCAAA (sugars k3 d10 k3, PS) |  | -2% |  |
| AAGCATTTTATCATCC (sugars kddddddddddkekek, PS) |  | 14% |  |
| CTTCCCTGAGAAATGG (sugars k3 d10 k3, PS) | 50 |  | target mRNA inhibition (MM.1R, 0.074 µM): 6%; target mRNA inhibition (MM.1R, 0.222 µM): 2%; target mRNA inhibition (MM.1R, 0.666 µM): 1%; target mRNA inhibition (MM.1R, 2 µM): 4%; target mRNA inhibition (SK-MEL-28, 0.185 µM): 16%; target mRNA inhibition (SK-MEL-28, 5 µM): 60%; target mRNA inhibition (SK-MEL-28, 15 µM): 85% |
| AGAAGCACTGGCATCG (sugars k3 d10 k3, PS) | 37 |  |  |
| GCTCATGCCGAACTCT (sugars k4 d8 k4, PS) | 30 |  |  |
| CAACCATTTTCACAAG (sugars k3 d10 k3, PS) | 17 |  |  |
| ACGGAAGTTTACACTG (sugars e1 k2 d9 k2 e2, PS) |  | 17% |  |
| ATTATATACTGGTTGG (sugars kkdddddddddekeke, PS) |  | 43% |  |
| TGGTTGGCTGGTCTTT (sugars k2 d9 e3 k2, PS) |  | 40% |  |
| GCCCCGAATAGGACCC (sugars k3 d10 k3, PS) | 21 |  |  |
